Patent publication US11414416B1, “Compounds and uses thereof” (Foghorn Therapeutics Inc., priority 2019, dated 2022)
Read-outs that look alike come from different tables or passages of the source.

Assays:
[1] = biological target: BRD9 bromodomain (Homo sapiens (Human), UniProt Q9H8M2); assay: BRD9 bromodomain TR-FRET competition binding assay; conditions: Table 4; competition with biotinylated ligand, 3 nM Flag-BRD9, 90 minutes
Protocol: Procedure: His-Flag-BRD9 (P133-K239; Swiss Prot Q9H8M2; SEQ ID NO:1 mgsshhhhhhenlyfq/gdykddddkgslevlfqg/[…] […]) was cloned, expressed, purified, and then treated with TEV protease. Cleaved His tag was removed by purification. The binding of a biotinylated small molecule ligand of BRD9 was assessed via the LANCE® TR-FRET platform (PerkinElmer), and the compounds were assayed for inhibitory activity against this interaction.
A mixture of biotinylated-ligand and SureLight™ Allophycocyanin-Streptavidin (APC-SA, PerkinElmer AD0201) in 50 mM HEPES (pH 7.4), 50 mM NaCl, 1 mM TCEP (pH 7), 0.01% (v/v) Tween-20, 0.01% (w/v) bovine serum albumin was added to a white 384-well PerkinElmer Proxiplate Plus plate. DMSO or 3-fold serially diluted compounds were then added to the Proxiplate followed by addition of Flag-BRD9. After a 10-minute incubation at room temperature, Eu-W1024 anti-FLAG (PerkinElmer, AD0273) was added. The final reaction mixture that contained 3.75 nM biotinylated ligand, 3 nM Flag-BRD9, 7.5 nM SureLight™ Allophycocyanin-Streptavidin, and 0.2 nM Eu-W1024 anti-FLAG was incubated at room temperature for 90 minutes.
Results: The plates were then read on a PerkinElmer Envision plate reader to determine the ratio of emission at 665 nm over 615 nm. […]

[2] = biological target: Nanoluciferase-BRD9 fusion protein (Homo sapiens (Human), UniProt Q9H8M2); assay: SYO1 BRD9 NanoLuc degradation assay; format: cell-based; conditions: SYO-1 cells expressing 3×FLAG-NLuc-BRD9, 6 hours; for DC50: read-out: SYO1 BRD9-NanoLuc degradation IC50
Sequence of Nanoluciferase-BRD9 fusion protein (Q9H8M2 whole entry, the tested form may be a part): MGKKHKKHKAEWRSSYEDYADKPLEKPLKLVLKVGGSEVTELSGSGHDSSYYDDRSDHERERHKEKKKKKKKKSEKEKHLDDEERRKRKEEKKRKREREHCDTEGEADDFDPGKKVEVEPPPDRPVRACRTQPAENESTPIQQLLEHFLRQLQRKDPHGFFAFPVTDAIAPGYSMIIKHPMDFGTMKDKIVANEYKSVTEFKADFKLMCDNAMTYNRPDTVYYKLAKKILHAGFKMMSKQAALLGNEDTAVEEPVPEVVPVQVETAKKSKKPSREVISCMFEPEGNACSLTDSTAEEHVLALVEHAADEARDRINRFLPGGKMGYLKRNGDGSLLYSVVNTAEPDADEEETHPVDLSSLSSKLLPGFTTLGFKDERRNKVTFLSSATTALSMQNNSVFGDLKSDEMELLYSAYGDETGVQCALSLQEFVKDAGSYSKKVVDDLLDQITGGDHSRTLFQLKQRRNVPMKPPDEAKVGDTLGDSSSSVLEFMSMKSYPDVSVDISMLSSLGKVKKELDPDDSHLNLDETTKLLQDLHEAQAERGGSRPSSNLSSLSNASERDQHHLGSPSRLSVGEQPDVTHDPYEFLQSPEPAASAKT
In short: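 Degradation was read as loss of nanoluciferase signal (Nano-Glo) after 6 h compound exposure in a stable SYO-1 line carrying 3×FLAG-NLuc-BRD9 (8000 cells/well). Normalised between DMSO (high) and a 1 μM known BRD9 degrader (low).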

Sequence of BRD9 bromodomain (Q9H8M2 133-239): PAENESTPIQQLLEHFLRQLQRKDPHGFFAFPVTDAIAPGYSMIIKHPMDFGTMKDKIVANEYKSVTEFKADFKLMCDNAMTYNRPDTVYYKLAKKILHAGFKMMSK

Structure (SMILES) | IC50 [1] | DC50 ([2]; Table 5B) | other results
COc1cc(-c2cn(C)c(=O)c3cnccc23)cc(OC)c1CN1CC(C(=O)NCCCCCCCCNc2cccc3c2C(=O)N(C2CCC(=O)NC2=O)C3=O)C1 (stereo not drawn) [Compound D1, 1-[[2,6-dimethoxy-4-(2-methyl-1-oxo-1,2-dihydro-2,7-naphthyridin-4-yl)phenyl]methyl]-N-(8-[[2-(2,6-dioxopiperidin-3-yl)-1,3-dioxo-2,3-dihydro-1H-isoindol-4-yl]amino]octyl)azetidine-3-carboxamide formic acid] | 10 to 100 nM | – | IC50 ([2]; Table 5A): < 10 nM
COc1cc(-c2cn(C)c(=O)c3cnccc23)cc(OC)c1CN(C)CC(=O)N1CCC(C2CCN(C(=O)COc3cccc4c3C(=O)N(C3CCC(=O)NC3=O)C4=O)CC2)CC1 (stereo not drawn) [Compound D2, 4-(2-[1-[2-([[2,6-dimethoxy-4-(2-methyl-1-oxo-1,2-dihydro-2,7-naphthyridin-4-yl)phenyl]methyl](methyl)amino)acetyl]-[4,4-bipiperidin]-1-yl]-2-oxoethoxy)-2-(2,6-dioxopiperidin-3-yl)-2,3-dihydro-1H-isoindole-1,3-dione] | < 10 nM | – | DC50 ([2]; Table 5A): 10 to 100 nM
COc1cc(-c2cn(C)c(=O)c3cnccc23)cc(OC)c1CN1CC(C(=O)NCCCCCNc2cccc3c2C(=O)N(C2CCC(=O)NC2=O)C3=O)C1 (stereo not drawn) [Compound D3, 1-[[2,6-dimethoxy-4-(2-methyl-1-oxo-1,2-dihydro-2,7-naphthyridin-4-yl)phenyl]methyl]-N-(5-[[2-(2,6-dioxopiperidin-3-yl)-1,3-dioxo-2,3-dihydro-1H-isoindol-4-yl]amino]pentyl) azetidine-3-carboxamide] | < 10 nM | – | IC50 ([2]; Table 5A): < 10 nM
COc1cc(-c2cn(C)c(=O)c3cnccc23)cc(OC)c1CN1CC(C(=O)NCCCCCCCCNC(=O)COc2cccc3c2C(=O)N(C2CCC(=O)NC2=O)C3=O)C1 (stereo not drawn) [Compound D4, N-[8-[(1-[[2,6-dimethoxy-4-(2-methyl-1-oxo-1,2-dihydro-2,7-naphthyridin-4-yl)phenyl]methyl]azetidin-3-yl)formamido]octyl]-2-[[2-(2,6-dioxopiperidin-3-yl)-1,3-dioxo-2,3-dihydro-1H-isoindol-4-yl]oxy]acetamide formic acid] | < 10 nM | – | DC50 ([2]; Table 5A): 10 to 100 nM
COc1cc(-c2cn(C)c(=O)c3cnccc23)cc(OC)c1CN1CC(NC(=O)CCCCCOc2cccc3c2C(=O)N(C2CCC(=O)NC2=O)C3=O)C1 (stereo not drawn) [Compound D5, N-(1-[[2,6-dimethoxy-4-(2-methyl-1-oxo-1,2-dihydro-2,7-naphthyridin-4-yl)phenyl]methyl]azetidin-3-yl)-6-[[2-(2,6-dioxopiperidin-3-yl)-1,3-dioxo-2,3-dihydro-1H-isoindol-4-yl]oxy]hexanamide] | < 10 nM | – | DC50 ([2]; Table 5A): 10 to 100 nM
COc1cc(-c2cn(C)c(=O)c3cnccc23)cc(OC)c1CN1CC(C(=O)N2CCC(C3CCN(C(=O)COc4cccc5c4C(=O)N(C4CCC(=O)NC4=O)C5=O)CC3)CC2)C1 (stereo not drawn) [Compound D6, 4-[2-[1-(1-[[2,6-dimethoxy-4-(2-methyl-1-oxo-1,2-dihydro-2,7-naphthyridin-4-yl)phenyl]methyl]azetidine-3-carbonyl)-[4,4-bipiperidin]-1-yl]-2-oxoethoxy]-2-(2,6-dioxopiperidin-3-yl)-2,3-dihydro-1H-isoindole-1,3-dione formic acid] | < 10 nM | – | IC50 ([2]; Table 5A): < 10 nM
COc1cc(-c2cn(C)c(=O)c3cnccc23)cc(OC)c1CN1CC(C(=O)NCCOCCOCCNc2cccc3c2C(=O)N(C2CCC(=O)NC2=O)C3=O)C1 (stereo not drawn) [Compound D7, 1-[[2,6-dimethoxy-4-(2-methyl-1-oxo-1,2-dihydro-2,7-naphthyridin-4-yl)phenyl]methyl]-N-[2-[2-(2-[[2-(2,6-dioxopiperidin-3-yl)-1,3-dioxo-2,3-dihydro-1H-isoindol-4-yl]amino]ethoxy)ethoxy]ethyl]azetidine-3-carboxamide formic acid] | < 10 nM | – | DC50 ([2]; Table 5A): 10 to 100 nM
COc1cc(-c2cn(C)c(=O)c3cnccc23)cc(OC)c1CN1CC(C(=O)NCCCCCCCCNc2cccc3c2C(=O)N(C2CCC(=O)N(C)C2=O)C3=O)C1 (stereo not drawn) [Compound D8, 1-[[2,6-dimethoxy-4-(2-methyl-1-oxo-1,2-dihydro-2,7-naphthyridin-4-yl)phenyl]methyl]-N-(8-[[2-(1-methyl-2,6-dioxopiperidin-3-yl)-1,3-dioxo-2,3-dihydro-1H-isoindol-4-yl]amino]octyl)azetidine-3-carboxamide formic acid] | < 10 nM | – | DC50 ([2]; Table 5A): > 1000 nM
COc1cc(-c2cn(C)c(=O)c3cnccc23)cc(OC)c1CN1CC(CC(=O)NCCCCCCCCNc2cccc3c2C(=O)N(C2CCC(=O)NC2=O)C3=O)C1 (stereo not drawn) [Compound D9, 2-(1-[[2,6-dimethoxy-4-(2-methyl-1-oxo-1,2-dihydro-2,7-naphthyridin-4-yl)phenyl]methyl]azetidin-3-yl)-N-(8-[[2-(2,6-dioxopiperidin-3-yl)-1,3-dioxo-2,3-dihydro-1H-isoindol-4-yl]amino]octyl)acetamide formic acid] | < 10 nM | – | IC50 ([2]; Table 5A): < 10 nM
COc1cc(-c2cn(C)c(=O)c3cnccc23)cc(OC)c1CN1CC[C@@H]1C(=O)NCCCCCCCCNc1cccc2c1C(=O)N(C1CCC(=O)NC1=O)C2=O (stereo partly drawn) [Compound D10] | 10 to 100 nM | – | IC50 ([2]; Table 5A): < 10 nM
COc1cc(-c2cn(C)c(=O)c3cnccc23)cc(OC)c1CN1CC[C@H]1C(=O)NCCCCCCCCNc1cccc2c1C(=O)N(C1CCC(=O)NC1=O)C2=O (stereo partly drawn) [Compound D11, (2S)-1-[[2,6-dimethoxy-4-(2-methyl-1-oxo-2,7-naphthyridin-4-yl)phenyl]methyl]-N-(8-[[2-(2,6-dioxopiperidin-3-yl)-1,3-dioxoisoindol-4-yl]amino]octyl)azetidine-2-carboxamide] | 10 to 100 nM | – | IC50 ([2]; Table 5A): < 10 nM
COc1cc(-c2cn(C)c(=O)c3cnccc23)cc(OC)c1CN1CC2CN(C(=O)CCOCCOc3cccc4c3C(=O)N(C3CCC(=O)NC3=O)C4=O)CCC21 (stereo not drawn) [Compound D92] | < 10 nM | – | –
COc1cc(-c2cn(C)c(=O)c3cnccc23)cc(OC)c1CN(C)CCOCCOCCOCC(=O)N[C@@H](C(=O)N1C[C@@H](O)C[C@@H]1C(=O)NCc1ccc(-c2scnc2C)cc1)C(C)(C)C [DD1] | – | > 1000 nM | –
COc1cc(-c2cn(C)c(=O)c3cnccc23)cc(OC)c1CN(C)CCN(C)CCNC(=O)COc1ccc2c(c1)C(=O)N(C1CCC(=O)NC1=O)C2=O (stereo not drawn) [DD2] | – | 100 to 1000 nM | –
COc1cc(-c2cn(C)c(=O)c3cnccc23)cc(OC)c1CN(C)CCOCCOCCNc1cccc2nc(C)n(C3CCC(=O)NC3=O)c(=O)c12 (stereo not drawn) [DD3] | – | > 1000 nM | –
COc1cc(-c2cn(C)c(=O)c3cnccc23)cc(OC)c1CN(C)CCCCCCCCNc1cccc2c1CN(C1CCC(=O)NC1=O)C2=O (stereo not drawn) [DD4] | – | < 10 nM | –
COc1cc(-c2cn(C)c(=O)c3cnccc23)cc(OC)c1CN(C)CCCCCCCCNc1cccc2nc(C)n(C3CCC(=O)NC3=O)c(=O)c12 (stereo not drawn) [DD5] | – | 10 to 100 nM | –
COc1cc(-c2cn(C)c(=O)c3cnccc23)cc(OC)c1CN(C)CC(=O)NCCN1Cc2cc3c(cc2C1)C(=O)N(C1CCC(=O)NC1=O)C3=O (stereo not drawn) [DD6] | – | 10 to 100 nM | –
COc1cc(-c2cc(C)cc3ccccc23)cc(OC)c1CN1CCC(CN2CCC3(CC2)CC(Oc2ccc4c(c2)C(=O)N(C2CCC(=O)NC2=O)C4=O)C3)CC1 (stereo not drawn) [DD11] | – | – | DC50 ([2]; Table 5C): > 1000 nM
COc1cccc(OC)c1CN1CCC2(CC1)CN(c1ccc3c(c1)C(=O)N(C1CCC(=O)NC1=O)C3)C2 (stereo not drawn) [DD12] | – | – | DC50 ([2]; Table 5C): > 1000 nM
COc1cc(-c2cccc3c(=O)n(C)ccc23)cc(OC)c1CN1CCC2(CC1)CN(c1ccc3c(c1)C(=O)N(C1CCC(=O)NC1=O)C3)C2 (stereo not drawn) [DD13] | – | – | DC50 ([2]; Table 5C): 10 to 100 nM
COc1cccc(OC)c1CN1CCN(c2ccc3c(c2)C(=O)N(C2CCC(=O)NC2=O)C3)CC1 (stereo not drawn) [DD14] | – | – | DC50 ([2]; Table 5C): > 1000 nM
COc1cc(-c2nc(N)nc3[nH]cnc23)cc(OC)c1CN1CCC2(CC1)CN(c1ccc3c(c1)C(=O)N(C1CCC(=O)NC1=O)C3)C2 (stereo not drawn) [DD15] | – | – | DC50 ([2]; Table 5C): 10 to 100 nM
Cn1ccc2oc(C(=O)NC3CCN(c4ccc5c(c4)C(=O)N(C4CCC(=O)NC4=O)C5)CC3)cc2c1=O (stereo not drawn) [DD16] | – | – | DC50 ([2]; Table 5C): 10 to 100 nM

Second part, led by results:

IC50 [1] | DC50 ([2]; Table 5B) | Structure (SMILES) | other results
– | < 10 nM | COc1cc(-c2cn(C)c(=O)c3cnccc23)cc(OC)c1CN(C)CC(=O)NCCCCOc1ccc(-c2ccc3c(c2)C(=O)C(C2CCC(=O)NC2=O)C3=O)cc1 (stereo not drawn) [DD7] | –
– | < 10 nM | COc1cc(-c2cn(C)c(=O)c3cnccc23)cc(OC)c1CN(C)CC(=O)NCCCCCOc1ccc(-c2ccc3c(c2)C(=O)N(C2CCC(=O)NC2=O)C3=O)cc1 (stereo not drawn) [DD8] | –
– | < 10 nM | COc1cc(-c2cc(C)c(=O)n(C)c2)cc(OC)c1CN1Cc2cc3c(cc2C1)C(=O)N(C1CCC(=O)NC1=O)C3=O (stereo not drawn) [DD9] | –
– | 100 to 1000 nM | COc1cc(-c2cc(C)c(F)c3ccccc23)cc(OC)c1CN1CCC(CN2CCC3(CC2)CC(Oc2ccc4c(c2)C(=O)N(C2CCC(=O)NC2=O)C4=O)C3)CC1 (stereo not drawn) [DD10] | –
